Assay results: US4883796A, “Oxime ethers of 2,6-dioxabicyclo(3.3.0)octanones, and compositions and methods for treatment of a cardiac disease or circulatory with them” (Heinrich Mack Nachf., priority 1987, dated 1989)

What was measured:
isolated aorta strips [1] = experiment: inhibition of potassium chloride-induced contractions on isolated aorta strips, rat; type: cell-based; conditions: read-out: ED50, inhibition of potassium chloride-induced contractions
isolated aorta strips [2] = experiment: inhibition of potassium chloride-induced contractions on isolated aorta strips, rabbit; type: cell-based; conditions: read-out: ED50, inhibition of potassium chloride-induced contractions
[3] = Influence on systolic arterial pressure and heart rate of conscious normotensive beagle dogs, perorally; type: in vivo; conditions: 5.0 mg/kg perorally; for HR (heart rate): 0 h value 95 ± 8; for SAP (systolic arterial pressure): 0 h value 137 ± 7
Experimental: Influence on the systolic arterial pressure (SAP) and the heart rate
(HR) of concious normotensive beagle dogs. Substance was administered

[4] = Cardiovascular effects after intravenous administration to narcotised rats with opened thorax and artificial respiration; type: in vivo; conditions: 1.0 mg/kg i.v.
Text: |Cardiovascular effects of the compound of example 3 after intravenous |administration to narcotised rats (Pentobarbital) with opened thorax and |artificial respiration.

[5] = tested on: Lypressin-induced T-wave elevation in the ECG; experiment: Influence on the Lypressin-induced T-wave elevation in the ECG of narcotised rats; type: in vivo
Experimental: Influence on the T-wave elevation in the ECG of narcotised
rats, which was induced by intravenous bolus injection of
Lypressin. The substances were administered perorally 15
minutes and at various times before the Lypressin injection

Isoprenaline tachycardia = experiment: Inhibition of Isoprenaline tachycardia in narcotised, despinalised rats; type: in vivo; conditions: Rattus norvegicus, prophylactic
Text: Inhibition of Isoprenaline tachycardia in narcotised,
despinalised rats after prophylactic, intravenous or
intraduodenal application

[6] = orientating toxicity, mice, perorally; conditions: mouse, in vivo, po, read-out: dose withstood without clinical symptoms and without fatalities
[7] = Cardiovascular effects after i.d. administration to narcotised rats with opened thorax and artificial respiration; type: in vivo; conditions: 30 mg/kg i.d.
Text: |Cardiovascular effects of example 3 after i.d. administration to |narcotised rats (Pentobarbital) with opened thorax and artificial |respiration.

[8] = Reduction of the arterial mean pressure in narcotised rabbits, i.d.; type: in vivo; conditions: Oryctolagus cuniculus, intraduodenal, read-out: ED30 (mmHg), reduction of the arterial mean pressure
Experimental: Reduction of the arterial mean pressure in narcotised rabbits.
The substance was administered i.d.

SMILES: CC(C)NCC(O)CON=C1COC2C(O[N+](=O)[O-])COC12 (stereo not drawn) [Example 2, 4-(2-Hydroxy-3-isopropylamino-propyl)-oximino-2,6-dioxabicyclo[3.3.0]octan-8-exo-ol-nitrate]
- IC50 (isolated aorta strips [1]): 472 µM
- IC50 (isolated aorta strips [2]): 4 mM

SMILES: CC(C)(C)NCC(O)CON=C1CO[C@H]2[C@@H]1OC[C@H]2O[N+](=O)[O-] (stereo partly drawn) [Example 3, 4-(3-tert.-Butylamino-2-hydroxy-propyl)-oximino-2,6-dioxabicyclo[3.3.0]octan-8-endo-ol-nitrate]
- HR changes ([3]; 0.5 h): -13 ± 2 Schl/M
- SAP changes ([3]; 0.5 h): -28 ± 6 mmHg
- HR (heart rate) ([3]; 0.5 h): 82 ± 7 Schl/M
- SAP (systolic arterial pressure) ([3]; 0.5 h): 109 ± 4 mmHg
- HR changes ([3]; 1 h): -20 ± 5 Schl/M
- SAP changes ([3]; 1 h): -31 ± 5 mmHg
- HR (heart rate) ([3]; 1 h): 75 ± 5 Schl/M
- SAP (systolic arterial pressure) ([3]; 1 h): 106 ± 2 mmHg
- HR changes ([3]; 2 h): -24 ± 6 Schl/M
- SAP changes ([3]; 2 h): -21 ± 2 mmHg
- HR (heart rate) ([3]; 2 h): 70 ± 6 Schl/M
- SAP (systolic arterial pressure) ([3]; 2 h): 116 ± 5 mmHg
- HR changes ([3]; 3 h): -19 ± 5 Schl/M
- SAP changes ([3]; 3 h): -15 ± 4 mmHg
- HR (heart rate) ([3]; 3 h): 76 ± 4 Schl/M
- SAP (systolic arterial pressure) ([3]; 3 h): 122 ± 4 mmHg
- HR changes ([3]; 4 h): -14 ± 4 Schl/M
- SAP changes ([3]; 4 h): -9 ± 3 mmHg
- HR (heart rate) ([3]; 4 h): 81 ± 4 Schl/M
- SAP (systolic arterial pressure) ([3]; 4 h): 128 ± 7 mmHg
- BAF, changes [4]: -34 ± 5 mL/min
- BAF, length of action [4]: 109 min
- BAF, maximum efficacy [4]: 1.3 ± 0.3 min
- CO, changes [4]: -0.09 ± 0.02 L/min
- CO, length of action [4]: 113 ± 21 min
- CO, maximum efficacy [4]: 5 ± 2 min
- HR changes [4]: -13 ± 10 beats/min
- HR, length of action [4]: > 114 min
- HR, maximum efficacy [4]: 7 ± 3 min
- LV dp/dt, changes [4]: -811 ± 116 mmHg/s
- LV dp/dt, length of action [4]: 107 ± 12 min
- LV dp/dt, maximum efficacy [4]: 6.8 ± 5 min
- LVEDP, changes [4]: 0.7 ± 0.7 mmHg
- LVEDP, length of action [4]: 51 ± 28 min
- LVEDP, maximum efficacy [4]: 9.3 ± 8 min
- LVP, changes [4]: -38 ± 2 mmHg
- LVP, length of action [4]: 103 ± 28 min
- LVP, maximum efficacy [4]: 1.7 ± 0.4 min
- MAP, changes [4]: -36 ± 20 mmHg
- MAP, length of action [4]: 111 ± 15 min
- MAP, maximum efficacy [4]: 1.2 ± 0.0 min
- PAP, changes [4]: -5 ± 2 mmHg
- PAP, length of action [4]: 50 ± 18 min
- PAP, maximum efficacy [4]: 3.0 ± 0.1 min
- SV, changes [4]: +0.3 ± 0.5 ml/min
- SV, length of action [4]: 31 ± 24 min
- SV, maximum efficacy [4]: 2 ± 1 min
- TPVR, changes [4]: -43 ± 4 mmHg/ml
- TPVR, length of action [4]: 13 ± 8 min
- TPVR, maximum efficacy [4]: 1.0 ± 1.0 min
- CO (cardiac minute volume), efficacy of the substance ([4]; previous value 0.83 ± 0.04): 0.74 ± 0.08 L/min
- LVEDP (left ventricular end diastolic pressure), efficacy of the substance ([4]; previous value 3.8 ± 1.0): 3.1 ± 1.0 mmHg
- SV (cardiac output), efficacy of the substance ([4]; previous value 6.0 ± 0.4): 6.3 ± 0.6 mL/min
- PAP (blood pressure in the A. pulmonalis), efficacy of the substance ([4]; previous value 22 ± 3): 17 ± 2 mmHg
- BAF (blood flow in the A femoralis), efficacy of the substance ([4]; previous value 73 ± 16): 40 ± 11 mL/min
- MAP (mean arterial blood pressure), efficacy of the substance ([4]; previous value 117 ± 5): 81 ± 5 mmHg
- LVP (left ventricular blood pressure), efficacy of the substance ([4]; previous value 130 ± 12): 92 ± 12 mmHg
- HR (cardiac frequency), efficacy of the substance ([4]; previous value 140 ± 8): 127 ± 4 beats/min
- TPVR (total peripheral vascular resistence), efficacy of the substance ([4]; previous value 142 ± 9): 99 ± 6 mmHg/ml
- LV dp/dt (maximum left ventricular pressure increase rate), efficacy of the substance ([4]; previous value 2558 ± 141): 1747 ± 84 mmHg/s
- ED50 ([5]; Rattus norvegicus, po, 0.25 h, perorally 15 minutes before Lypressin): 50.8 mg/kg
- Length of action at ED50-Dose ([5]; perorally): 240 min
- ED50 (Isoprenaline tachycardia; iv): 4.6 mg/kg
- ED50 (Isoprenaline tachycardia; i.d.): 74.6 mg/kg
- NOAEL [6]: 500 mg/kg
- BAF, changes [7]: -23 ± 5 mL/min
- BAF, length of action [7]: > 167 min
- BAF, maximum efficacy [7]: 42 ± 8 min
- CO, changes [7]: -0.09 ± 0.02 L/min
- CO, length of action [7]: > 167 min
- CO, maximum efficacy [7]: 62 ± 8 min
- HR changes [7]: -23 ± 4 beats/min
- HR, length of action [7]: > 167 min
- HR, maximum efficacy [7]: 78 ± 44 min
- LV dp/dt, changes [7]: -879 ± 90 mmHg/s
- LV dp/dt, length of action [7]: > 132 min
- LV dp/dt, maximum efficacy [7]: 76 ± 10 min
- LVEDP, changes [7]: -2.3 ± 0.9 mmHg
- LVEDP, length of action [7]: 77 ± 8 min
- LVEDP, maximum efficacy [7]: 38 ± 27 min
- LVP, changes [7]: -38 ± 11 mmHg
- LVP, length of action [7]: > 153 min
- LVP, maximum efficacy [7]: 65 ± 17 min
- MAP, changes [7]: -25 ± 4 mmHg
- MAP, length of action [7]: > 167 min
- MAP, maximum efficacy [7]: 58 ± 12 min
- PAP, changes [7]: -4.3 ± 5 mmHg
- PAP, length of action [7]: 111 ± 16 min
- PAP, maximum efficacy [7]: 33 ± 11 min
- SV, changes [7]: +0.5 ± 0.07 ml/min
- SV, length of action [7]: > 167 min
- SV, maximum efficacy [7]: 33 ± 3 min
- TPVR, changes [7]: -23 ± 3 mmHg/ml
- TPVR, length of action [7]: > 136 min
- TPVR, maximum efficacy [7]: 39 ± 5 min
- CO (cardiac minute volume), efficacy of the substance ([7]; previous value 0.75 ± 0.03): 0.66 ± 0.05 L/min
- LVEDP (left ventricular end diastolic pressure), efficacy of the substance ([7]; previous value 3.8 ± 1): 1.5 ± 2 mmHg
- SV (cardiac output), efficacy of the substance ([7]; previous value 5.3 ± 0.4): 5.8 ± 0.3 mL/min
- PAP (blood pressure in the A. pulmonalis), efficacy of the substance ([7]; previous value 22.8 ± 6): 18.5 ± 7 mmHg
- BAF (blood flow in the A femoralis), efficacy of the substance ([7]; previous value 70 ± 4): 47 ± 23 mL/min
- MAP (mean arterial blood pressure), efficacy of the substance ([7]; previous value 116 ± 7): 91 ± 12 mmHg
- LVP (left ventricular blood pressure), efficacy of the substance ([7]; previous value 133 ± 9): 95 ± 10 mmHg
- HR (cardiac frequency), efficacy of the substance ([7]; previous value 142 ± 5): 119 ± 7 beats/min
- TPVR (total peripheral vascular resistence), efficacy of the substance ([7]; previous value 155 ± 8): 132 ± 10 mmHg/ml
- LV dp/dt (maximum left ventricular pressure increase rate), efficacy of the substance ([7]; previous value 2345 ± 100): 1466 ± 189 mmHg/s
- ED (30 mmHg) [8]: 22.8 mg/kg
